From ChEMBL document CHEMBL1132504, “Nucleosides and nucleotides. 183. Synthesis of 4'alpha-branched thymidines as a new type of antiviral agent” (Bioorg Med Chem Lett, 1999) come the findings set out here.

A value given as a limit tells only on which side of the number the result lay.

Assay [1] concerns Human immunodeficiency virus 1. The experiment in a line: Antiviral activity against HIV-1 (human immunodeficiency virus type 1). It is filed as functional, organism-based.
A further assay has as its system Human alphaherpesvirus 1. Briefly: Antiviral activity against HSV-1 (herpes simplex virus). It is filed as functional, organism-based.
Assay [2] is described as follows: Cytotoxicity against HIV-1 (human immunodeficiency virus type 1). It is filed as functional. To be noted: Human immunodeficiency virus 1.
A short description of assay [3]: Cytotoxicity against HSV-1 (herpes simplex virus). It is filed as functional. To be noted: Human alphaherpesvirus 1.

By EC50 is commonly meant the concentration that produces a half-maximal response. For orientation: CC50 means the concentration at which the toxic effect on the cells reaches its halfway point. A high value points to lower toxicity to the cells. Regarding `C=C[C@]1(CO)O[C@@H](n2cc(C)c(=O)[nH]c2=O)C[C@@H]1O`, the EC50 in assay [1] was 6.1 µM; in the assay with Human alphaherpesvirus 1, 1.9 µM. The CC50 in assay [2] and in assay [3] was over 100 µM throughout.
Regarding `Cc1cn([C@H]2C[C@H](N=[N+]=[N-])[C@@H](CO)O2)c(=O)[nH]c1=O` [ZIDOVUDINE], the response in assay [1] was half-maximal at 0.0017 µM (EC50). This molecule had a CC50 in assay [2] of 16.5 µM.
For the molecule `Nc1nc2c(ncn2COCCO)c(=O)[nH]1` [ACYCLOVIR], the CC50 in assay [3] was over 100 µM.
`Cc1cn([C@H]2C[C@H](O)[C@](CO)(CCO)O2)c(=O)[nH]c1=O`: the EC50 in assay [1] is over 4.7 µM; in the assay with Human alphaherpesvirus 1 it was over 100 µM. The values for the CC50 in assay [2] and in assay [3] were 4.7 µM and over 100 µM, respectively.
As to `Cc1cn([C@H]2C[C@@H]3OCC[C@]3(CO)O2)c(=O)[nH]c1=O`, the EC50 (in assay [1]; in the assay on Human alphaherpesvirus 1) was over 100 µM each time. Further, the CC50 in assay [2] and in assay [3] was over 100 µM throughout.
Turning to `C#C[C@]1(CO)O[C@@H](n2cc(C)c(=O)[nH]c2=O)C[C@@H]1O`, the EC50 in assay [1] amounted to 0.83 µM; with Human alphaherpesvirus 1, 6.8 µM. For the same molecule, the CC50 in assay [2] and in assay [3] was over 100 µM each time.
Regarding `CC[C@]1(CO)O[C@@H](n2cc(C)c(=O)[nH]c2=O)C[C@@H]1O`, the EC50 in assay [1] is 16.1 µM; in the assay with Human alphaherpesvirus 1, 7.4 µM. In addition, the CC50 in assay [2] and in assay [3] was over 100 µM each time.
